How the values were obtained:
[1] = tested on: hairless mice (Hos: HR-1); assay: UV-induced Trans-Epidermal Water Loss (TEWL), application onto the skin (Tewameter); type: in vivo; conditions: UV-exposed hairless mice, skin application for 8 weeks; back skin
Experimental: (§1) Forty eight (48) 6-week-old female hairless mice (Hos: HR-1) were accustomed for a week and randomly divided into six (6) groups, eight (8) mice per each group. The hairless mice were exposed to UV for 8 weeks. UV irradiation was carried out 3 times a week, while the amount of UV irradiation was increased from 1 MED (1 MED=50 mJ/cm^2) to 4 MED which was then kept until the end of the test. Test groups were divided into a total of six groups, i.e. Non UV-treated Group, UV-treated Group, UV+5,7-dimethoxyflavone-treated Group, UV+5,7,4′-trimethoxyflavone-treated Group, UV+3,5,7,3′,4′-pentamethoxyflavone-treated Group, and UV+ethanol extract of Kaempferia parviflora-treated Group. Each sample was dissolved in a mixture solvent of ethanol and polyethylene glycol (7:3, v/v), and 50 μL of each sample was applied onto the back of the mice every day for 8 weeks. For the Non UV-treated group and the UV-treated group, 50 μL of a mixture of ethanol and polyethylene glycol (7:3, v/v) was applied. In order to test the preventative effect of wrinkle formation, skin replicas were taken using silicone polymer (SILFLO Impression Material, Flexico, England). The image files of the skin replicas were subjected to wrinkle evaluation using the computer imaging analysis system, i.e. Skin Visiometer SV 600 software (Courage+Khazaha Electronic, Kln, Germany). Rt, Rm, Rz and Ra values (Rt: the distance from the highest and lowest portions on the skin surface, Rm: the maximum Rt value among five (5) measurements, Rz: the mean Rt value of five measurements, Ra: the arithmetic mean value of surface roughness) were determined The results are shown in FIGS. 12 and 13A to 13D.
By using Tewameter (TM 300, Courage+Khazaha Electronic, Kln, Germany), Trans-Epidermal Water Loss (TEWL) was measured on the back of the mice in Example 7-1.

[2] = tested on: Collagenase-1 (Matrix Metalloproteinase-1, MMP-1); assay: Inhibition of UV-induced Collagenase-1 (MMP-1) production in human fibroblasts (ELISA kit); type: cell-based; conditions: 15 mJ UV, 20 μM flavones, 20 μg/ml ethanol extract, FIG. 11
Experimental: (§2) Firstly, human fibroblasts were placed in a 96-well microtiter plate (5,000 cells/well) containing DMEM (Dulbecco's Modified Eagle's Media) which comprises 2.5% bovine fetal serum, and cultured until they reached a growth rate of around 90%. Then, the cells were treated for 24 hours in serum-free DMEM containing 20 μM of 5,7-dimethoxyflavone, 20 μM 5,7,4′-trimethoxyflavone, 20 μM 3,5,7,3′,4′-pentamethoxyflavone and 20 μg/ml of the ethanol extract of Kaempferia parviflora of Examples 1-4, respectively, and followed by the exposure to 15 mJ of UV. Subsequently, the cells were additionally treated with serum-free DMEM containing 20 μM of 5,7-dimethoxyflavone, 20 μM 5,7,4′-trimethoxyflavone, 20 μM 3,5,7,3′,4′-pentamethoxyflavone and 20 μg/ml of the ethanol extract of Kaempferia parviflora of Examples 1-4, respectively. After 24 hours, the cell culture was collected and centrifuged to obtain the supernatant.
For the resulting supernatant, the degree of Collagenase-1 (MMP-1) production was observed by Collagenase-1 Measurement Kit (QIA55, Merch & Co., USA). Firstly, the above obtained cell culture was placed in a 96-well plate evenly coated with primary antibodies against Collagenase-1 (MMP-1), followed by antigen-antibody reaction for 2 hours at room temperature. After 2 hours, primary antibodies against collagen with fluorescence were added to the said 96-well plate for 1 hour. After 1 hour, a substance inducing color formation was added and left for 30 minutes at room temperature. Then, a termination buffer was added to discontinue the color formation, resulting in the formation of yellow color. The degree of yellow color varied depending on the degree of the said reaction process. Absorbance of the 96-well plate showing yellow color was measured with an absorptiometer at 450 nm.

[3] = tested on: hairless mice (Hos: HR-1); assay: In vivo improvement of UV-induced wrinkles, application onto the skin (skin replicas, Skin Visiometer); conditions: UV-exposed hairless mice; for wrinkle formation (skin replicas) in comparison with UV-treated Group: 50 μL applied onto the back every day for 8 weeks, FIG. 12; for Rt, Rm, Rz and Ra values (degree of wrinkle formation): skin application for 8 weeks, p<0.05, FIGS. 13A-13D
Experimental: as §1

[4] = tested on: hairless mice (Hos: HR-1); assay: UV-induced Trans-Epidermal Water Loss (TEWL), oral administration (Tewameter); type: in vivo; conditions: UV-exposed hairless mice, oral daily for 8 weeks; flavones 50 mg/kg/day, extract 200 mg/kg/day
Experimental: (§3) To the hairless mice exposed to UV in Example 7-1,5,7-dimethoxyflavone (50 mg/kg/day), 5,7,4′-trimethoxyflavone (50 mg/kg/day), 3,5,7,3′,4′-pentamethoxyflavone (50 mg/kg/day) and the ethanol extract of Kaempferia parviflora (200 mg/kg/day) dissolved in 0.5% carboxymethyl cellulose solution containing 5% Tween 80 were orally administered daily for 8 weeks. For the control groups (Non UV-treated Group and UV-treated Group), 0.5% carboxymethyl cellulose solution was administered. In order to test the preventative effect of wrinkle formation, skin replicas were taken using silicone polymer (SILFLO Impression Material, Flexico, England). The image files of the skin replicas were subjected to wrinkle evaluation using the computer imaging analysis system, i.e. Skin Visiometer SV 600 software (Courage+Khazaha Electronic, Kln, Germany).
By using Tewameter (TM 300, Courage+Khazaha Electronic, Kln, Germany), Trans-Epidermal Water Loss (TEWL) was measured on the back of the mice in Example 7-2.

[5] = tested on: hairless mice (Hos: HR-1); assay: Skin elasticity, application onto the skin (Cutometer); type: in vivo; conditions: UV-exposed hairless mice, skin application for 8 weeks; Non UV-treated Group = 100
Experimental: as §1
By using Cutometer (MPA 580, Courage+Khazaha Electronic, Germany), skin elasticity was measured on the back of the mice in the above Example 7-1 and compared with Non UV-treated Group.

[6] = tested on: hairless mice (Hos: HR-1); assay: In vivo improvement of UV-induced wrinkles, oral administration (skin replicas, Skin Visiometer); conditions: UV-exposed hairless mice, oral daily for 8 weeks, flavones 50 mg/kg/day, extract 200 mg/kg/day; for wrinkle formation (skin replicas) compared with UV-treated Group: FIG. 14; for Rt, Rm, Rz and Ra values (degree of wrinkle formation): p<0.05, FIGS. 15A-15D
Experimental: as §3

[7] = tested on: Procollagen Type-I C Peptide (PIP); assay: Enhancing effect on collagen production (Procollagen Type-I C Peptide ELISA) in UV-exposed human fibroblasts; type: cell-based; conditions: 15 mJ UV, 20 μM flavones, 20 μg/ml ethanol extract, PIP in supernatant
Experimental: as §2, with “supernatant. For the obtained supernatant, the production of Procollagen Type-I C Peptide (PIP), an indicator of collagen production, was quantitatively measured by ELISA kit (MK101, Takara Bio Ink., Japan) so as to observe their effect on collagen production.” for “supernatant.”
Firstly, antibody-PIP conjugates tagged to peroxidase were added to a 96-well plate evenly coated with mouse monoclonal antibodies against Procollagen. Then, the above obtained cell culture was added and reacted for 3 hours in an incubator, followed by the addition of substrate solution for color formation. Upon staying for 15 minutes at room temperature, the reaction was ended after the addition of reaction termination solution. Absorbance was measured with an absorptiometer at 450 nm.

[8] = tested on: hairless mice (Hos: HR-1); assay: Skin elasticity, oral administration (Cutometer); type: in vivo; conditions: UV-exposed hairless mice, oral daily for 8 weeks; flavones 50 mg/kg/day, extract 200 mg/kg/day; Non UV-treated Group = 100
Experimental: as §3
By using Cutometer (MPA 580, Courage+Khazaha Electronic, Germany), skin elasticity was measured on the back of the mice in Example 7-2 and compared with Non UV-treated Group.

SMILES | TEWL [1] [g/m^2/hr] | inhibition of Collagenase-1 (MMP-1) activity induced by UV light [2] | wrinkle formation (skin replicas) in comparison with UV-treated Group [3] | Rt, Rm, Rz and Ra values (degree of wrinkle formation) [3] | TEWL [4] [g/m^2/hr] | Degree of skin elasticity [5] [%] | wrinkle formation (skin replicas) compared with UV-treated Group [6] | Rt, Rm, Rz and Ra values (degree of wrinkle formation) [6] | Content of Collagen [7] [ng/10^5 cell] | Degree of skin elasticity [8] [%]
COc1cc(OC)c2c(=O)c(OC)c(-c3ccc(OC)c(OC)c3)oc2c1 [3,5,7,3′,4′-pentamethoxyflavone] | 22.0 | excellent for inhibiting Collagenase-1 (MMP-1) activity | remarkable decrease in wrinkle formation | significantly reduced | 20.3 | 72.3 | remarkable decrease in wrinkle formation | significantly reduced | 226.5 | 81.7
COc1ccc(-c2cc(=O)c3c(OC)cc(OC)cc3o2)cc1 [5,7,4′-trimethoxyflavone] | 24.8 | excellent for inhibiting Collagenase-1 (MMP-1) activity | remarkable decrease in wrinkle formation | significantly reduced | 19.6 | 76.9 | remarkable decrease in wrinkle formation | significantly reduced | 230.0 | 85.6
COc1cc(OC)c2c(=O)cc(-c3ccccc3)oc2c1 [5,7-dimethoxyflavone] | 19.4 | excellent for inhibiting Collagenase-1 (MMP-1) activity | remarkable decrease in wrinkle formation | significantly reduced | 16.4 | 83.5 | remarkable decrease in wrinkle formation | significantly reduced | 236.7 | 77.3
